# Measured values reported in patent publication US8455440B2, “Combination anticoagulant therapy with a compound that acts as a factor Xa inhibitor” (Millennium Pharmaceuticals, Inc., priority 2007, dated 2013).
# Positions of bridges follow the written chain, without caps; N, C: chain ends. Non-standard residues stand in square brackets, D forms with d. Residues, ends and D or L forms follow the SMILES beside them. hArg = N=C(N)NCCCC[C@H](N)C(=O)O; Mpa = O=C(O)CCS
# Key:
# [1] = tested on: clotting times (prothrombin time, PT and activated partial thromboplastin times, aPTT); assay: Ex vivo clotting times (PT, aPTT) in the rat thrombosis model; conditions: Compound A 0.03 μM, aspirin 3 mg/kg, or both
# Experimental: (§1) In this experiment, the ability of Compound A to maintain vessel patency under arterial flow conditions in ferric chloride induced thrombosis in rat carotid artery is compared to that achieved by clopidogrel. Compound A was administered by intravenous infusions and clopidogrel was dosed orally for three days. Ex vivo platelet aggregation induced by 10 μM ADP and clotting times (prothrombin time, PT and activated partial thromboplastin times, aPTT) were measured over the experimental time course (90 min) in all animals.
# as §1, with “The combination effect of an anticoagulant and anti-platelet agent, aspirin, was investigated in an in vivo model of thrombosis. […] In” for “In”, “aspirin.” for “clopidogrel.”, “aspirin” for “clopidogrel”, “administered as an intravenous bolus approximately 30 min prior to the start of the experiment.” for “dosed orally for three days.”, “μg/mL of collagen” for “μM ADP”
# thrombin generation = assay: Thrombin generation assay in platelet rich plasma (PRP); assay type: biochemical, human; conditions: ASA donors (aspirin for at least three days), 0 nM Compound A; normalized to Non-ASA at 0 nM
# Experimental: PRP and PPP were prepared by spinning the anticoagulated blood at ˜100×g or 1000×g for 20 minutes, respectively, at room temperature. Platelet counts in PRP were adjusted with homologous PPP to about 200,000 platelets/μL. For thrombin generation in 100 μL reaction mixture, 75 μL PRP was first mixed with CaCl2, convulxin, and Z-Gly-Gly-Arg-aminomethylcoumarin (Z-GGR-AMC, a thrombin fluorogenic substrate) for 3 minutes at 37° C., followed by adding tissue factor (Innovin, Dade Behring) to initiate the generation of thrombin. A typical reaction mixture contained 15 mM Ca^2+, 0.1 μg/mL convulxin, 100 μM Z-GGR-AMC, and 0.1 nM TF (tissue factor) (Innovin). Thrombin formation was monitored continuously at 37° C. by a fluorometric plate reader (Molecular Devices) measuring the relative fluorescence units (RFU). Inhibitors were pre-incubated with plasma for 20 minutes at room temperature before adding CaCl2 and convulxin.
# Non-ASA represents result from donors free of aspirin. ASA represents results from donors taken aspirin for at least three days. % Inhibition was calculated by normalization of mean RFU (n=5) to Non-ASA at 0 nM Compound A.
# [2] = tested on: collagen induced platelet aggregation; assay: Ex vivo platelet aggregation induced by 10 μg/mL of collagen; assay type: in vivo; conditions: Rattus norvegicus
# Experimental: The combination effect of an anticoagulant and anti-platelet agent, aspirin, was investigated in an in vivo model of thrombosis. […] Ex vivo platelet aggregation induced by 10 μg/mL of collagen and clotting times (prothrombin time, PT and activated partial thromboplastin times, aPTT) were measured over the experimental time course (90 min) in all animals.
# [3] = tested on: ferric chloride induced thrombosis in rat carotid artery; assay: Ferric chloride induced thrombosis in rat carotid artery; assay type: in vivo
# Interleukin 8 = assay: Ex vivo cytokine release in human whole blood: interleukin 8; assay type: cell-based; conditions: ASA treated donors, no Compound A (Control = 100.0)
# Experimental: An ex vivo assay system of human cytokine release was used to test whether inhibition of factor Xa should augment the effect of reduction of inflammation elicited by standard anti-inflammatory drugs, such as aspirin.
# At the end of the activation period, blood samples were centrifuged at 13,000 rpm (15,000 g) for 5 min in an Eppendorf 5415G centrifuge. Plasma was removed, treated with protease inhibitor cocktail (Roche) and stored frozen at −80° C. Cytokines released from the blood cells were quantitated in a Multiplexed Biomarker Immunoassay for Luminex Instrumentation (Millipore USA).
# [4] = tested on: ADP induced platelet aggregation; assay: Ex vivo platelet aggregation induced by 10 μM ADP; assay type: in vivo; conditions: Rattus norvegicus, po, 72 h, clopidogrel 1 mg/kg, dosed orally for three days, read-out: inhibition of ADP induced platelet aggregation in platelet rich plasma
# Experimental: as §1
# This level of platelet inhibition is approximately equivalent to that attained by clopidogrel's effect on human platelets at the therapeutic dose in clinical use (75 mg per day). […] Time to occlusion was measured in animals that had vessel occlusion.
# [5] = tested on: venous thromboembolism (VTE); assay: Prospective randomized trial for prevention of venous thromboembolic events after total knee replacement; conditions: Enoxaparin 30 mg bid subcutaneous, 10-14 days, n = 41
# Description: Safety endpoints included the incidence of major and clinically significant nonmajor bleeds through the day after venography. All efficacy and bleeding endpoints were adjudicated by a blinded, independent central adjudication committee.
# pooled human plasma = assay: Ex vivo clotting assays (aPTT) in pooled human plasma; assay type: biochemical; conditions: 0.5 U/mL enoxaparin
# [6] = tested on: systolic and diastolic blood pressure; assay: Telemetry blood pressure in conscious beagle dogs, three way crossover; assay type: in vivo
# Experimental: The study design was a three way crossover with one week between doses to ensure complete elimination of residual agents from the dogs' circulatory system. […] Data acquisition and analysis was performed using LDS Life Science Suite Ponemah P3 plus V 4.20 software with results reported as 10 minute averages for each animal.
# AUC was derived from the systolic and diastolic baseline. […] Negative values represent a decrease in blood pressure relative to the baseline value.
# human whole blood = assay: Real time perfusion chamber: whole blood perfused over collagen and tissue factor coated surface; assay type: cell-based; conditions: 2.4 μM eptifibatide alone (0 nM Compound A), shear rate 300 s^−1, five donors
# Experimental: After the perfusion, the thrombotic activity was quantified by measurement of labeled fibrin produced as a result of fibrinogen cleavage during the activation of platelets and the blood coagulation system. For this series of experiments in five healthy human volunteers, blood was obtained by venipuncture and treated with 2.4 μM eptifibatide. The dose of eptifibatide corresponds to the plasma concentration attained by therapeutic concentrations of the GPIIb/IIIa inhibitor.
# [7] = Dog # 1, oral, Compound A 3 mg/kg, verapamil 10 mg/kg
# [8] = Dog # 2, oral, Compound A 3 mg/kg, verapamil 10 mg/kg
# [9] = Dog # 3, oral, Compound A 3 mg/kg, verapamil 10 mg/kg
# [10] = following verapamil or placebo administration ([…]), relative to baseline
# [11] = three dogs, oral, Compound A 3 mg/kg, verapamil 10 mg/kg
compound,measurement,setting,value
"CC(=O)Oc1ccccc1C(=O)O [aspirin, acetylsalicylic acid, reference compound]",APTT Ratio,[1],1.02
same,PT ratio,[1],1.01
same,% Inhibition of thrombin generation,thrombin generation,21.5%
same,inhibition at 1 mg/kg,[2]; aspirin 1.0 mg/kg iv bolus,< 2%
same,inhibition at 3 mg/kg,"[2]; aspirin 3 mg/kg iv bolus, read-out: inhibition of collagen induced platelet aggregation in platelet rich plasma",35%
same,inhibition at 10 mg/kg,[2]; aspirin 10 mg/kg iv bolus,77%
same,% DNO (inhibition of rat thrombosis),"[3]; Compound A 0.03 μM iv infusion, aspirin 3 mg/kg iv bolus, or both",30%
same,animals that did not occlude,[3]; aspirin 1.0 mg/kg iv bolus,10%
same,inhibition of rat thrombosis (animals that did not occlude),[3]; aspirin 10 mg/kg iv bolus,33.3%
same,TTO (Time to occlusion),"[3]; average for animals that occluded, Compound A 0.03 μM, aspirin 3 mg/kg, or both",31.61 ± 10.91 min
same,DNO (did not occlude),"[3]; number of 10 animals, Compound A 0.03 μM iv infusion, aspirin 3 mg/kg iv bolus, or both",3
same,Percent Release of IL8,Interleukin 8,66.7%
"COC(=O)[C@H](c1ccccc1Cl)N1CCc2sccc2C1 [Clopidogrel, reference compound]",inhibition at 1 mg/kg,[4],46%
same,% Animals that did not occlude,"[3]; clopidogrel 0.01 mg/kg (sub-therapeutic dose), oral",10%
same,inhibition of rat thrombosis (animals that did not occlude),"[3]; clopidogrel 1 mg/kg, dosed orally for three days",89%
Enoxaparin [reference compound],VTE %,[5],10%
same,activated partial thromboplastin time (aPTT),pooled human plasma,55 s
"COc1ccc(CCN(C)CCCC(C#N)(c2ccc(OC)c(OC)c2)C(C)C)cc1OC (stereo not drawn) [Verapamil, reference compound]",Lowest Diastolic Blood Pressure Post-Dosing,[6]; [7],65.11 mmHg
same,Lowest Systolic Blood Pressure Post-Dosing,[6]; [7],137.18 mmHg
same,Lowest Diastolic Blood Pressure Post-Dosing,[6]; [8],62.47 mmHg
same,Lowest Systolic Blood Pressure Post-Dosing,[6]; [8],111.90 mmHg
same,Lowest Diastolic Blood Pressure Post-Dosing,[6]; [9],51.94 mmHg
same,Lowest Systolic Blood Pressure Post-Dosing,[6]; [9],95.52 mmHg
same,decrease of diastolic blood pressure,"[6]; Verapamil 10 mg/kg as a single agent, within one hour of oral administration",33%
same,"Mean Area Under the Curve for Diastolic Pressure (AUCP), Mean ± S.D.",[6]; [10],−3077.8 ± 1845.51 mmHg * min.
same,"Mean Area Under the Curve for Systolic Pressure (AUCP), Mean ± S.D.",[6]; [10],−1133.6 ± 1134.7 mmHg * min.
same,"Mean Area Under the Curve for Diastolic Pressure (AUCP), Mean ± S.D.","[6]; following verapamil or placebo administration ([…]), relative to baseline, listed as verapamil",−3079±1846 mmHg * min.
same,"Lowest Diastolic Blood Pressure Post-Dosing, Mean ± S.D.",[6]; [11],59.84 ± 6.97^1 mmHg
same,"Lowest Systolic Blood Pressure Post-Dosing, Mean ± S.D.",[6]; [11],114.87 ± 20.99 mmHg
"N=C(N)NCCCC[C@@H]1NC(=O)CCSSC[C@@H](C(N)=O)NC(=O)[C@@H]2CCCN2C(=O)[C@H](Cc2c[nH]c3ccccc23)NC(=O)[C@H](CC(=O)O)NC(=O)CNC1=O [eptifibatide, reference compound] ([Mpa][hArg]GDWPC-NH2; disulfide 1-7)",Mean Fluorescence,human whole blood,118.0
